# Measurements published in patent US20120178666A1 (SHIRE LLC, priority 2009, published 2012).
# How the values were obtained:
# [1] = Prodrug stability in simulated intestinal fluid (USP); details: 37° C.
# Procedure: (§1) The remaining concentrations of the prodrugs were then assayed by HPLC.
# [2] = Prodrug stability in simulated gastric fluid (USP); details: 37° C.
# Procedure: as §1
Compound,% prodrug remaining following incubation for: 2 h in simulated intestinal fluid pH 6.8 [1] [%],% prodrug remaining following incubation for: 1 h in simulated gastric fluid pH 1.1 [2] [%]
"O=C(O)CC1N=C(NC(=O)Cc2c(Cl)cccc2Cl)NC1=O (centres unmarked) [Compound 4, Guanfacine fumaryl Cyclic adduct]",84,97
"N=C(NC(=O)CC[C@H](NC(=O)[C@@H]1CCC(=O)N1)C(=O)O)NC(=O)Cc1c(Cl)cccc1Cl [Compound 6, (S)-Pyroglutamic acid-(S)-γ-Glutamate (Guanfacine) Amide]",98,81
"CNCC(=O)N[C@@H](CCC(=O)NC(=N)NC(=O)Cc1c(Cl)cccc1Cl)C(=O)O [Compound 7, Sarcosine-(S)-γ-Glutamate-Guanfacine Amide]",66,79
"N=C(NC(=O)Cc1c(Cl)cccc1Cl)NC(=O)NC(C(=O)O)c1ccccc1 (centres unmarked) [Compound 8, Guanfacine Phenylglycine Urea]",100,96
"N=C(NC(=O)CCNC(=O)[C@@H]1CCC(=O)N1)NC(=O)Cc1c(Cl)cccc1Cl [Compound 10, Guanfacine B-Alanine-(S)-Pyroglutamic acid Amide]",,82
"CN1CC(=O)N=C1NC(=O)Cc1c(Cl)cccc1Cl [Compound 12, Cyclised Guanfacine Sarcosine Amide]",87,48
"N=C(NC(=O)Cc1c(Cl)cccc1Cl)NC(=O)Oc1ccc(C[C@H](N)C(=O)O)cc1 [Compound 13, (S)-Tyrosine-(Guanfa ine) Carbamate]",81,74
"N=C(NC(=O)Cc1c(Cl)cccc1Cl)NC(=O)O[C@@H]1CN[C@H](C(=O)O)C1 [Compound 14, (S)-4-Hydroxyproline-(Guanfacine) Carbamate]",,70
"CC(=O)N[C@@H](COC(=O)NC(=N)NC(=O)Cc1c(Cl)cccc1Cl)C(=O)O [Compound 15, Acetyl-(S)-Serine (Guanfacine) Carbamate]",,83
"N=C(NC(=O)Cc1c(Cl)cccc1Cl)NC(=O)OC[C@H](NC(=O)[C@@H]1CCC(=O)N1)C(=O)O [Compound 16, (S)-Pyroglutamic acid-(S)-Serine(Guanfacine) Carbamate]",95,78
"CC(C)[C@@H](N)C(=O)N[C@@H](COC(=O)NC(=N)NC(=O)Cc1c(Cl)cccc1Cl)C(=O)O [Compound 18, (R)-Valine-(S)-Serine(Guanfacine) Carbamate]",,74
"C[C@@H](OC(=O)NC(=N)NC(=O)Cc1c(Cl)cccc1Cl)[C@H](NC(=O)[C@@H]1CCC(=O)N1)C(=O)O [Compound 19, (S)-Pyroglutamic acid-(S)-Threonine(Guanfacine) Carbamate]",,92
"CC(C)[C@H](N)C(=O)N[C@H](C(=O)O)[C@@H](C)OC(=O)NC(=N)NC(=O)Cc1c(Cl)cccc1Cl [Compound 20, (S)-Valine-(S)-Threonine(Guanfacine) Carbamate]",100,79
"CC(C)[C@@H](N)C(=O)N[C@H](C(=O)O)[C@@H](C)OC(=O)NC(=N)NC(=O)Cc1c(Cl)cccc1Cl [Compound 21, (R)-Valine-(S)-Threonine(Guanfacine) Carbamate]",,83
"CC(C)[C@@H](N)C(=O)NCCCC(=O)NC(=N)NC(=O)Cc1c(Cl)cccc1Cl [Compound 22, (R)-Valine aminobutanoyl Guanfacine Amide]",85,
"N=C(NC(=O)CCCNC(=O)[C@@H]1CCC(=O)N1)NC(=O)Cc1c(Cl)cccc1Cl [Compound 23, Guanfacine (GABA-(S)-Pyroglutamic acid) Amide]",78,98
"CC(C)[C@H](N)C(=O)NCCOC(=O)NC(=N)NC(=O)Cc1c(Cl)cccc1Cl [Compound 26, Guanfacine ethanolamine-(S)-Valine Carbamate]",91,97
"CC(C)[C@@H](N)C(=O)NCCOC(=O)NC(=N)NC(=O)Cc1c(Cl)cccc1Cl [Compound 27, Guanfacine (ethanolamine-(R)-Valine) Carbamate]",,78
"CC(C)[C@H](NC(=O)COC(=O)NC(=N)NC(=O)Cc1c(Cl)cccc1Cl)C(=O)O [Compound 29, Guanfacine (glycolyl-(S)-Valine) Carbamate]",99,80

Compound,% prodrug remaining following incubation for: 2 h in simulated intestinal fluid pH 6.8 [1] [%],% prodrug remaining following incubation for: 1 h in simulated gastric fluid pH 1.1 [2] [%]
"CC(C)[C@@H](NC(=O)COC(=O)NC(=N)NC(=O)Cc1c(Cl)cccc1Cl)C(=O)O [Compound 30, Guanfacine (glycolyl-(R)-Valine) Carbamate]",160,77
"CC(C)[C@@H](N)C(=O)N[C@H](CCC(=O)NC(=N)NC(=O)Cc1c(Cl)cccc1Cl)C(=O)O [Compound 31, (R)-Valine-(R)-γ-Glutamate(Guanfacine) Amide]",85,70
"CC(C)[C@H](N)C(=O)N[C@H](CCC(=O)NC(=N)NC(=O)Cc1c(Cl)cccc1Cl)C(=O)O [Compound 32, (S)-Valine-(R)-γ-Glutamate (Guanfacine) Amide]",84,93
"CC(C)[C@H](NC(=O)CC(C)(C)CC(=O)NC(=N)NC(=O)Cc1c(Cl)cccc1Cl)C(=O)O [Compound 33, Guanfacine 3,3 dimethylglutaryl (Valine) Amide]",99,79
"O=C1CCN=C(NC(=O)Cc2c(Cl)cccc2Cl)N1 [Compound 34, Guanfacine β Alanine Cyclic adduct]",91,51
"CC(C)[C@@H]1N=C(NC(=O)Cc2c(Cl)cccc2Cl)NC1=O [Compound 35, Guanfacine-(S)-Valine Cyclic adduct]",,83
"NCCCC[C@@H]1N=C(NC(=O)Cc2c(Cl)cccc2Cl)NC1=O [Compound 36, Guanfacine-(S)-Lysine Cyclic adduct]",,83
"NC(=O)CC[C@@H]1N=C(NC(=O)Cc2c(Cl)cccc2Cl)NC1=O [Compound 38, Guanfacine-(S)-Glutamine Cyclic adduct]",87,70
"C[C@@H]1N=C(NC(=O)Cc2c(Cl)cccc2Cl)NC1=O [Compound 39, Guanfacine-(S)-Alanine Cyclic adduct]",,89
"CC(C)C[C@@H](N)C(=O)N[C@@H](CCC(=O)NC(=N)NC(=O)Cc1c(Cl)cccc1Cl)C(=O)O [Compound 42, (R)-Leucine-(S)-γ-Glutamate(Guanfacine) Amide]",83,70
"N=C(NC(=O)CC[C@H](NC(=O)[C@H](N)CCCCN)C(=O)O)NC(=O)Cc1c(Cl)cccc1Cl [Compound 43, Guanfacine-(S)-γ-Glutamate-(R)-Lysine Amide]",85,62
"CSCC[C@@H](N)C(=O)N[C@@H](CCC(=O)NC(=N)NC(=O)Cc1c(Cl)cccc1Cl)C(=O)O [Compound 44, (R)-Methionine-(S)-γ-Glutamate(Guanfacine) Amide]",85,75
"N=C(NC(=O)CC[C@H](NC(=O)[C@H](N)Cc1ccc(O)cc1)C(=O)O)NC(=O)Cc1c(Cl)cccc1Cl [Compound 45, Guanfacine-(S)-γ-Glutamate-(R)-Tyrosine Amide]",91,74
"N=C(NC(=O)Cc1c(Cl)cccc1Cl)NC(=O)OCCNC(=O)CN [Compound 49, Guanfacine (ethanolamine Glycine) Carbamate]",,87
"C[C@H]1N=C(NC(=O)Cc2c(Cl)cccc2Cl)NC1=O [Compound 51, Guanfacine-(R)-Alanine Cyclic adduct]",,80
"N=C(NC(=O)Cc1c(Cl)cccc1Cl)NC(=O)Nc1ccc(C(=O)O)cc1 [Compound 53, Guanfacine PABA Urea]",100,
"CC(C)[C@H](N)C(=O)NCCCC(=O)NC(=N)NC(=O)Cc1c(Cl)cccc1Cl [Compound 56, Guanfacine (GABA-(S)-Valine) Amide]",,70
"N=C(NC(=O)CCCNC(=O)CC[C@H](N)C(=O)O)NC(=O)Cc1c(Cl)cccc1Cl [Compound 57, Guanfacine (GABA-(S)-Glutamate) Amide]",,81
"CNCC(=O)N[C@@H](CCOC(=O)NC(=N)NC(=O)Cc1c(Cl)cccc1Cl)C(=O)O [Compound 66, Sarcosine-(S)-Homoserine (Guanfacine) Carbamate]",,86
